One series is described as follows: PAMPA experiment. Type of series: in vitro ADME. The following applies: 1.8% lecithin membrane, drug test solution 10 μM, 37° C., 16 hours. As to the method:
Reagents: lecithin, n-dodecane, HEPES, dimethyl sulfoxide (DMSO), acetonitrile
Instrument and equipment: Multiscreen 96-well plate (up Merck Millipore), Multiscreen 96-well plate (down Merck Millipore), electronic analytical balance, constant temperature incubator, high performance liquid chromatography-mass spectrometry (LC-MS)
Method for operation: Preparation of PAMPA artificial membrane: about 18 mg of lecithin was weighed accurately, and placed into a 1.5 mL EP tube. 1 mL of n-dodecane was added. The mixture was dissolved by ultrasonication, and then thoroughly mixed to obtain a 1.8% lecithin membrane.
The upper layer of the PAMPA model was the plate lid, the middle layer was the 96-well filter plate (donor plate), and the lower layer was the accepter plate. 5 μL of the above 1.8% lecithin membrane was added to the filter membrane of the donor plate, and then 150 μL of the drug test solution (10 μM) was added. 300 μL of HEPES solution was added to each well of the accepter plate (completed within 10 minutes). The donor plate was slowly placed onto the accepter plate and incubated at 37° C. for 16 hours.
LC-MS detection: 100 μL of the positive control and the test compound was weighed respectively, to which 100 μL of acetonitrile-DMSO solution [acetonitrile-DMSO (4:1)] was added. The mixture was mixed well, and detected by LC-MS at OH and 16H. The corresponding molecular ion peak was extracted and the peak area was obtained; After the PAMPA model was incubated at 37° C. for 16 h, 100 μL of the test solution in the donor plate and the accepter plate was weighed respectively, to which 100 μL of acetonitrile-DMSO solution [acetonitrile-DMSO (4:1)] was added. The mixture was mixed well, and detected by LC-MS. The corresponding molecular ion peak was extracted, the peak area was obtained, and the concentration was calculated.

Another series has as its target T1, SHP2 (Homo sapiens, UniProt Q06124).
T1 construct: endogenous in cells; host or cells: SUM159 triple-negative breast cancer cells
T1 sequence (Q06124 1-593): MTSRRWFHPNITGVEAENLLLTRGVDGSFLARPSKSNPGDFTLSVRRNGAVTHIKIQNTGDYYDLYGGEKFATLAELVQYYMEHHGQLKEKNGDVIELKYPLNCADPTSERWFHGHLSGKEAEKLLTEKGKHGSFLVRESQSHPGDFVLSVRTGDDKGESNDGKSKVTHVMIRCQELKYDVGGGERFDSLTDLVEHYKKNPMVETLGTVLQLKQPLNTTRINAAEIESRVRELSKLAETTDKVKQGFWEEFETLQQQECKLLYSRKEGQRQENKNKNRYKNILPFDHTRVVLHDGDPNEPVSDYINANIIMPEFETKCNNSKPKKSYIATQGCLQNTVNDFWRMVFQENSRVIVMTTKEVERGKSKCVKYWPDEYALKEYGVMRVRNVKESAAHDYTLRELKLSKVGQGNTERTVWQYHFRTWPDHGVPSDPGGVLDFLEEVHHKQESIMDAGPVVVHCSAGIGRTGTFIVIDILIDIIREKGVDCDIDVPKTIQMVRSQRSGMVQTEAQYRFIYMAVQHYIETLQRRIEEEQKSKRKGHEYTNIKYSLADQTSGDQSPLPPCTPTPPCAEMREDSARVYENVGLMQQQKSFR
The series is described as follows: Western blot, degradation of SHP2 in vitro. Type of series: cell-based. Particulars: degradation of SHP2 in SUM159 cells, 24 hours with compound. As to the method: 1. The Biological Activity of Compounds was Determined by Western Blot Method Using the Following Method:
Reagents: Complete 1640 medium was purchased from Gibco. Fetal bovine serum was purchased from ThermoFisher. Trypsin was produced by ThermoFisher. SHP-2 antibody was produced by CST.
(§1) Cell line: SUM159 triple-negative breast cancer cell line was established by Rovera.
Method for assay: Cells growth in the logarithmic phase were collected and suspended in a 1640 medium containing 10% fetal bovine serum, which was then gently pipetted into a single-cell suspension. Viable cells were counted under microscope. 9 mL of the cell suspension was seeded and cultured in a 10 cm culture dish at a final concentration of 2×10^5 cells/mL. After cells were pre-cultured for 24 hours at 37° C. and 5% CO2, different concentrations of solutions of the compounds of the present disclosure in DMSO were added (the final concentration of DMSO was no more than 0.5%), and the negative control group was added with the same volume of DMSO alone. After cultured for another 24 hours, all cells were collected and washed with PBS. The cells were lysed with RIPA lysis buffer, and the lysates were collected into a 1.7 mL centrifuge tube. The proteins were fully denatured after heating in the metal bath at 95° C. for 10 minutes. After loading the samples onto the gel for Western blotting, electrophoresis was performed at a constant voltage of 100V until the band of bromophenol blue reached the terminal point. The proteins were transferred onto a cellulose acetate membrane using the wet transfer method at a constant current of 300-500 mA for 45 minutes, and the proteins were blocked with 5% BSA at room temperature for 1-2 hours. The proteins were incubated with primary antibody diluted 1:500 to 1:8000 at room temperature for 2 hours, and then washed three times. Subsequently, the proteins were incubated with secondary antibody at room temperature for 1 hour. The detection of proteins was performed using ultrasensitive ECL luminescent liquid such as Enlight, and signals were captured using an automatic X-ray film developing machine. For the test results, see the in vitro Western Blot experiment of Example 1 and the in vitro Western Blot experiment of Example 3.
The compounds of the present disclosure have good in vitro anti-solid tumor and anti-blood tumor activities and have low toxicity to normal cells.

Series [1] has as its system SUM159 triple-negative breast cancer cell line. The experiment in a line: CCK8 method, cell viability. Type of series: cell-based. The following applies: SUM159 cells, 72 hours, CCK8 absorbance. As to the method: 2. The Biological Activity of Compounds was Determined by CCK8 Method Using the Following Method:
Reagents: Complete RPMI 1640 medium was purchased from Gibco. Fetal bovine serum was purchased from ThermoFisher. Trypsin was produced by ThermoFisher. SHP-2 antibody was produced by CST. CCK8 was produced by abcam.
as §1
Method for assay: Cells growth in the logarithmic phase were collected and suspended in a RPMI 1640 medium containing 10% fetal bovine serum, which was then gently pipetted into a single-cell suspension. Viable cells were counted under microscope. The cells were seeded into a 96-well plate at a density of 3-6*10^3 cells per well and cultured in an incubator for 24 hours. Test compounds were diluted in multiples, and then the cell culture supernatant was added. The cells were cultured for another 72 hours, and 10 μL of CCK8 detection solution was added to each well. After incubating for 1-4 hours, the absorbance was measured using a microplate reader.

pIC50: −log10 of the molar value.

In the case of `O=C1CC(=O)OCN2C(=O)CCC(C2=O)N2Cc3cc(ccc3C2=O)OCCOC/C=C\COCCOc2ccc(c(Cl)c2)-c2cc(=O)c3cc(I)c(cc3o2)CO1` (centres unmarked) [Example 1], the “PAMPA (−Log Pe)” value in the series “PAMPA experiment” was determined as 6.71. At SHP2, the DC50 is 210 nM. This compound gave a pIC50 in series [1] of 7.54.

`O=C1CCC2C(=O)N1COP(=O)(O)OCc1cc3oc(cc(=O)c3cc1I)-c1ccc(cc1Cl)OCCOC/C=C\COCCOc1ccc3c(c1)C(=O)N2C3=O` (centres unmarked) [Example 2]: in the series “PAMPA experiment”, the “PAMPA (−Log Pe)” value is 6.0. In series [1], this compound gave a pIC50 of 6.00.

Regarding `O=C1OCc2cc3oc(cc(=O)c3cc2I)-c2ccc(cc2Cl)OCCOC/C=C\COCCOc2ccc3c(c2)CN(C3=O)C2CCC(=O)N(COC1=O)C2=O` (centres unmarked) [Example 3], the “PAMPA (−Log Pe)” value in “PAMPA experiment” worked out at 5.94. Moreover, on SHP2, the DC50 stood at 37 nM. Besides, the pIC50 in series [1] was 8.13.

As for `O=C1CC(=O)OCN2C(=O)CCC(C2=O)N2Cc3cc(ccc3C2=O)OCCCC/C=C\CCCCOc2ccc(c(Cl)c2)-c2cc(=O)c3ccc(cc3o2)CO1` (centres unmarked) [Example 4], the “PAMPA (−Log Pe)” value in the series “PAMPA experiment” turned out to be 6.11. Further, the pIC50 in series [1] was 6.14.

Consider `O=C1OCc2cc3oc(cc(=O)c3cc2I)-c2ccc(cc2Cl)OCCOC/C=C\COCCOc2ccc3c(c2)CN(C3=O)C2CCC(=O)N(COC(=O)c3cccc1c3)C2=O` (centres unmarked) [Example 5], for which, in the series “PAMPA experiment”, the “PAMPA (−Log Pe)” value was 5.78. In addition, the DC50 on SHP2 amounted to 500 nM. In addition, in series [1], the pIC50 was 6.70.

Take `O=C1OCc2ccc3c(=O)cc(oc3c2)-c2ccc(cc2Cl)OCCCC/C=C/CCCCOc2ccc3c(c2)CN(C3=O)C2CCC(=O)N(COC(=O)c3cccc1c3)C2=O` (centres unmarked) [Example 6]: the “PAMPA (−Log Pe)” value in the series “PAMPA experiment” is 8.55. The DC50 on SHP2 came out at 10 nM. The compound also showed a pIC50 in series [1] of less than 5.30.

In the case of `O=C1CC(=O)OCN2C(=O)CCC(C2=O)N2Cc3cc(ccc3C2=O)OCCOC/C=C\COCCOc2ccc(c(Cl)c2)-c2cc(=O)c3ccc(cc3o2)CO1` (centres unmarked) [Example 7], the DC50 on SHP2 is 188 nM. Further, the pIC50 in series [1] is 7.64.

For the compound `N[C@H]1CCC(=O)OCc2ccc3c(=O)cc(oc3c2)-c2ccc(cc2Cl)OCCOC/C=C/COCCOc2ccc3c(c2)CN(C3=O)C2CCC(=O)N(COC1=O)C2=O` (some centres unmarked) [Example 8], the “PAMPA (−Log Pe)” value in the series “PAMPA experiment” is 4.68. Besides, the pIC50 in series [1] is 8.27.

For `CN1CC(=O)OCc2ccc3c(=O)cc(oc3c2)-c2ccc(cc2Cl)OCCOC/C=C/COCCOc2ccc3c(c2)CN(C3=O)C2CCC(=O)N(COC(=O)C1)C2=O` (centres unmarked) [Example 9], the “PAMPA (−Log Pe)” value in “PAMPA experiment” worked out at 5.52. At SHP2, the DC50 was 4.21 nM. The compound also showed a pIC50 in series [1] of 8.62.

On to `CN1CC(=O)OCc2ccc3c(=O)cc(oc3c2)-c2ccc(cc2Cl)OCCOCCCCOCCOc2ccc3c(c2)CN(C3=O)C2CCC(=O)N(COC(=O)C1)C2=O` (centres unmarked) [Example 10], for which, in “PAMPA experiment”, the “PAMPA (−Log Pe)” value came to 5.56. Also, on SHP2, the DC50 came to 5.94 nM. The compound further showed a pIC50 in series [1] of 8.46.

The record behind these values is patent publication US20260217730A1, “PROTEOLYSIS TARGETING CHIMERA COMPOUND” (BEIJING TIDE PHARMACEUTICAL CO., LTD., priority 2023, published 2026).
